Measurements published in a melting point compilation (Tetko et al.; mined from patent text by program, amines drawn as free bases though some values may be those of a salt).

`CN(C)CCCOc1ccc(C[C@H](NC(=O)[C@@H]2CCCN2S(=O)(=O)c2cccs2)C(=O)O)cc1` showed a melting point greater than 200 °C.
Work on `CC(=O)Nc1ccc(Cl)cc1C(=O)c1ccccc1Cl` yielded a melting point of 108 to 110 °C.
With `Cn1ncc(C(=O)N2CCOCC2)c1C(=O)Nc1ccn2nc(-c3cccc(F)c3)nc2c1` the melting point was 212 to 214 °C.
With `CC(C)(C)C(=O)Nc1ccc2c(c1)ncn1c(=O)c(C(=O)O)cnc21` the melting point was 252 to 256 °C.
In the case of `CC(=O)Nc1nc(CCc2ccc(CN3CCN(C(=O)OC(C)(C)C)CC3)cc2)cs1`, the melting point is reported as 140 to 141 °C.
Molecule `COCCN(CCOC)C(=O)c1ccc(C(=O)N2CCN(c3ncccc3NC(C)C)CC2)cc1` has a melting point of 82 to 83 °C.
`O=C1C(c2cc3c(cc2O)OCCO3)c2ccccc2N1C(c1ccccc1)c1ccccc1` (stereo not given) gave a melting point of 157 to 160 °C.
Molecule `CC(C)CCOC1CCC(=O)N1` (stereo not given) has a melting point of 73 to 75 °C.
`CCOC(=O)C1=C(C)N=C(SCc2ccc(OC)cc2)N(C(=O)OCC)C1c1cccc(C#N)c1` (stereo not given) gave a melting point of 85 to 87 °C.
In the case of `CC(c1oc2ccccc2c(=O)c1-c1cccc(F)c1)n1nc(-c2ccc3c(c2)OCCCO3)c2c(N)ncnc21` (stereo not given), the melting point is reported as 234 to 237 °C.
`FC(F)(F)Oc1ccc2nc(-c3ccc(Cl)cc3)[nH]c2c1` gave a melting point of 190 to 192 °C.
Molecule `O=C(O)c1c(-c2ccccc2)c2ccccc2n1Cc1ccc(OCc2ccccc2)cc1` has a melting point of 193 to 194 °C.
`O=C(O)[C@]1(c2ccc(Br)cc2)CC1(c1ccccc1)c1ccccc1` gave a melting point of 180 to 182 °C.
With `CC(=O)OCC1CC(n2c(I)nc3cc(Cl)c(Cl)cc32)C(OC(C)=O)C1OC(C)=O` (stereo not given) the melting point was 152 to 153 °C.
In the case of `COc1ccc(CCN2CCC(C(O)(c3ccccc3)c3nc4ccccc4s3)CC2)cc1` (stereo not given), the melting point is reported as 67 to 70 °C.
`O=C(NCc1ccc(Cl)cc1)c1cn2c(CCO)cc3cc(CC4CCOCC4)cc(c1=O)c32` showed a melting point of 204 to 206 °C.
`COc1cc(COc2ncccc2C#N)ccc1OCc1nc(-c2ccccc2)oc1C` showed a melting point of 117 to 118 °C.
With `COC(=O)CC1CCCC2CC(=O)N(OCC(=O)C(CC(=O)O)NC(=O)OCc3ccccc3)C12` (stereo not given) the melting point was 55 to 58 °C.
In the case of `CN(C)CC1(C2(O)CCCCC2)Cc2cc3c(cc21)N(C)CC3` (stereo not given), the melting point is reported as 121 to 124 °C.
For `CN1CCN(CC(=O)N2c3ccccc3N(C)S(=O)(=O)c3ccccc32)CC1`, the melting point was 143 to 144 °C.
With `CCCCCCCCCCN(C[C@H]1CCC[C@H](CN(CCCCCCCCCC)C(=O)Nc2ccc(N(C)C)cc2)C1)C(=O)Nc1ccc(N(C)C)cc1` (relative stereo) the melting point was 115 to 117 °C.
For `CCOC(=O)C1=C(C)NC(C)=C2C(=O)Oc3cccnc3C12` (stereo not given), the melting point was 100 to 150 °C.
Molecule `CC(CCCCCOCCc1ccccc1)NCC(O)c1ccc(O)c2[nH]c(=O)ccc12` (stereo not given) has a melting point of 134 to 138 °C.
`COc1cc2c(C3=CCN(C[C@H](O)COc4cccc5[nH]ccc45)CC3)c[nH]c2cc1Cl` showed a melting point of 115 to 120 °C.
With `O=C1N(CC2COCCO2)c2ccccc2C12COc1cc3c(cc12)OCCCO3` (stereo not given) the melting point was 137 to 139 °C.
In the case of `CCOC(=O)N(CC)c1c(OC)cc(Cc2cnc(N)nc2N)cc1OC`, the melting point is reported as 165 to 167 °C.
With `COC(=O)c1ccc(COc2ccc3cc(-c4ccc(-c5ccccc5)[nH]4)ccc3c2)c(C(=O)OC)c1` the melting point was 203 to 205 °C.
Work on `COC(=O)Cn1cc([C@H]2CCC3C4CC=C5C[C@@H](O)CC[C@]5(C)C4CC[C@@]32C)nn1` (stereo not given in full) yielded a melting point of 221 to 223 °C.
Molecule `CCOc1cc(-c2cccc(C(=O)NCc3cccc4c3C(=O)N(C3CCC(=O)NC3=O)C4=O)n2)ccc1OC` (stereo not given) has a melting point of 196 to 198 °C.
With `COc1ccc(-c2cc(C)c(C(=O)NCCCCc3cccnc3)c(C)c2)cc1OC` the melting point was 117 to 119 °C.
With `Cc1cc(C2(C(F)(F)F)CC(c3ccc(S(C)=O)cc3)=NO2)ccc1NC(=O)OC(C)(C)C` (stereo not given) the melting point was 76.5 to 88.5 °C.
In the case of `NS(=O)(=O)c1cccc2ccccc12`, the melting point is reported as 152 to 153 °C.
With `O=C(O)CCC(=O)c1ccc(NC(=O)C2(Cl)CC2)cc1` the melting point was 178 to 179 °C.
`CC(=O)N1CCC(C(O)(c2ccccc2)c2ccc(F)cc2)CC1` (stereo not given) showed a melting point of 173 to 175 °C.
For `OC(COc1ccc(-n2cncn2)cc1)CN1CCN(c2ccc(F)cc2)CC1` (stereo not given), the melting point was 149 to 150 °C.
